According to patent publication US20150118229A1, “JAK1 SELECTIVE INHIBITOR AND USES THEREOF” (ABBVIE INC., priority 2013, published 2015):
“Also recorded” adds a separate entry of the source. Where two headings read alike, the source gives them in different places.

Legend:
[1] = Metabolic stability in liver microsomes, rat; format: in vitro ADME; settings: read-out: intrinsic clearance in liver microsomes (scaled) (converted)
[2] = Metabolic stability in liver microsomes, dog; format: in vitro ADME; settings: read-out: intrinsic clearance in liver microsomes (scaled)
[3] = In vitro metabolism of [14C]Compound 1 in liver cytosol and hepatocytes; format: in vitro ADME, rat, dog, monkey, and human
From the text: In vitro biotransformation of Compound 1 primarily occurred at imidazolpyrrolopyrazinyl ethyl pyrrolidine moiety.

[4] = biological target: CYP2C9 (Homo sapiens, UniProt P11712); assay: CYP inhibition in human liver microsomes, CYP2C9
[5] = Human PK in healthy Japanese and Chinese subjects, Study M13-543; format: in vivo; settings: for AUC12/dose / Cmax/dose / Ctrough/Dose: Day 14, mean (% CV); for half-life / AUC / concentration at 14 day / AUC(0-t): human, plasma, oral; for AUC: read-out: AUC12; for concentration at 14 day: read-out: Ctrough; for AUC(0-t): mean (% CV)
From the text: Two additional subjects were assigned to each dose level as placebo control.

[6] = test system: CYP2B6; assay: CYP induction (mRNA) in human hepatocytes, CYP2B6; format: in vitro ADME
[7] = biological target: OAT3 (Homo sapiens, UniProt Q8TCC7); assay: Transporter inhibition, OAT3
[8] = Human PK, multiple ascending dose Study M13-845 Substudy 1; format: in vivo
[9] = Japanese, 6 & 24 mg single doses
[10] = 18 mg, Chinese, 18 mg BID, Day 14
[11] = 18 mg, Japanese, 18 mg BID, Day 14
[12] = 12 mg BID, Day 14, mean (% CV), Western subjects, listed as Comp. 1

Chain of CYP2C9 (P11712 whole entry): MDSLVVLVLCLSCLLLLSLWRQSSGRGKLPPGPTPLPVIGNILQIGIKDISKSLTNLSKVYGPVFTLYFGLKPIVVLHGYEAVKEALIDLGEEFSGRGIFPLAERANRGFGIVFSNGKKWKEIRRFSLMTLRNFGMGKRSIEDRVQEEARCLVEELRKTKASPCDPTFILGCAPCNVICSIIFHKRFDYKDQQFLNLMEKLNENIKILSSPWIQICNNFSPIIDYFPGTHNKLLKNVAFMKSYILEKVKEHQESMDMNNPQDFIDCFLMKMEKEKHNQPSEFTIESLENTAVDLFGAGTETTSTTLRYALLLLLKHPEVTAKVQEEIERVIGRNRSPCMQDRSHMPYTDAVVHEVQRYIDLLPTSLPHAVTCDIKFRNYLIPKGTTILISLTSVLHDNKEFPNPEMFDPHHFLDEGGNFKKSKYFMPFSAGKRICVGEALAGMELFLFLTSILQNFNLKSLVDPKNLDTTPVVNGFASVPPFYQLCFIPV
Chain of OAT3 (Q8TCC7 whole entry): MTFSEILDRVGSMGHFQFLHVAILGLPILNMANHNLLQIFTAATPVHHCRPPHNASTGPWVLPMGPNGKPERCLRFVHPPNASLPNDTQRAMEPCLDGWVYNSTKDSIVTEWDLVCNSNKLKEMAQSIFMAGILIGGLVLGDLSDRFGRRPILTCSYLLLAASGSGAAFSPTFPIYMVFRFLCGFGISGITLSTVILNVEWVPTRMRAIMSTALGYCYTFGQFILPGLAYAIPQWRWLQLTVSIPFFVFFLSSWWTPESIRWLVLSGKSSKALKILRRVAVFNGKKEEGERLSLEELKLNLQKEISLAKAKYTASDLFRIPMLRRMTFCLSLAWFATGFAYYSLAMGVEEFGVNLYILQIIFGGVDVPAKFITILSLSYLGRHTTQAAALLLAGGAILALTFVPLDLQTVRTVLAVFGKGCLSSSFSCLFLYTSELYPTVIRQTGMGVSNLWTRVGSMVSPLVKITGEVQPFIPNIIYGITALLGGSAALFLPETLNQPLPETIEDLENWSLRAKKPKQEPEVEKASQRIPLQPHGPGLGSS

SMILES: CC[C@@H]1CN(C(=O)NCC(F)(F)F)C[C@@H]1c1cnc2cnc3[nH]ccc3n12 [Compound 1, (3S,4R)-3-ethyl-4-(3H-imidazo[1,2-a]pyrrolo[2,3-e]pyrazin-8-yl)-N-(2,2,2-trifluoroethyl)pyrrolidine-1-carboxamide]
- CLint scaled at 0.5 μM [1]: 84.7 mL/min/kg
- CLint scaled at 0.5 μM [2]: < 33.3 mL/min/kg
- metabolism in liver cytosol incubations ([3]; liver cytosol): No metabolism
- turnover in hepatocytes ([3]; rat, dog, monkey, human hepatocytes): < 10%
- time-dependent inhibition of CYP2C9 ([4]; human liver microsomes): No obvious time-dependent inhibition
- inhibition of CYP2C9 ([4]; up to 30 μM): did not inhibit; also recorded: not an inhibitor
- CL/F ([5]; Chinese, 18 mg BID, Day 14): 39.0 L/h
- AUC12/dose ([5]; Chinese, 18 mg BID): 25.9 ng·h/mL/mg
- Cmax/dose ([5]; Chinese, 18 mg BID): 6.57 ng/mL/mg
- Ctrough/Dose ([5]; Chinese, 18 mg BID): 0.43 ng/mL/mg
- AUC lower than previously observed in Western subjects ([5]; Japanese, 3 mg single dose): 14%
- Cmax lower than previously observed in Western subjects ([5]; Japanese, 3 mg single dose): 22%
- CL/F ([5]; Japanese, 18 mg BID, Day 14): 35.2 L/h
- AUC12/dose ([5]; Japanese, 18 mg BID): 29.0 ng·h/mL/mg
- Cmax/dose ([5]; Japanese, 18 mg BID): 7.08 ng/mL/mg
- Ctrough/Dose ([5]; Japanese, 18 mg BID): 0.48 ng/mL/mg
- AUC higher than previously observed in Western subjects [5, 9]: 16-18%
- Cmax higher than previously observed in Western subjects [5, 9]: 9%
- half-life ([5]; 6 mg, Japanese, single dose 6 mg, harmonic mean (pseudo % CV), not a robust estimate, read-out: t1/2 (converted)): 5.5 h
- AUC ([5]; 18 mg, Chinese, 18 mg BID, Day 1, mean (% CV)): 410 ng·h/mL
- AUC [5, 10]: 466 ng·h/mL
- concentration at 14 day [5, 10]: 7.7 ng/mL
- AUC ([5]; 18 mg, Japanese, 18 mg BID, Day 1, mean (% CV)): 440 ng·h/mL
- half-life ([5]; 18 mg, Japanese, 18 mg BID, Day 14, harmonic mean (pseudo % CV), read-out: t1/2 (converted)): 9.51 h
- AUC [5, 11]: 522 ng·h/mL
- concentration at 14 day [5, 11]: 8.61 ng/mL
- half-life ([5]; Japanese, Chinese, and Western healthy subjects, read-out: terminal t1/2): 7 to 9.5 h
- AUC(0-t) ([5]; Japanese, single dose 3 mg): 87.9 ng·h/mL
- AUC(0-t) ([5]; Japanese, single dose 6 mg): 185 ng·h/mL
- AUC(0-t) ([5]; Japanese, single dose 24 mg): 722 ng·h/mL
- dose-normalized AUC and Ctrough higher in Asians than Westerns ([5]; multiple BID dosing): approximately 20%
- dose-normalized Cmax higher in Asians than Westerns ([5]; multiple BID dosing): approximately 40%
- CYP2B6 mRNA expression, % of the response of phenobarbital ([6]; 10 μM): 25%
- mRNA expression of CYP2B6 ([6]; 1 and 3 μM): did not increase
- IC50 [7]: 43 µM
- AUC12/dose ([8]; 3 mg BID, Day 1): 25.1 ng·h/mL/mg
- C12/dose ([8]; 3 mg BID, Day 1): 0.32 ng/mL/mg
- Cmax/dose ([8]; 3 mg BID, Day 1): 6.33 ng/mL/mg
- AUC12/dose ([8]; 3 mg BID, Day 14): 26.1 ng·h/mL/mg
- Cmax/dose ([8]; 3 mg BID, Day 14): 6.16 ng/mL/mg
- Fe %, unchanged drug recovered in urine ([8]; 3 mg BID, Day 14): 18.8%
- AUC12/dose ([8]; 6 mg BID, Day 1): 22.3 ng·h/mL/mg
- C12/dose ([8]; 6 mg BID, Day 1): 0.30 ng/mL/mg
- Cmax/dose ([8]; 6 mg BID, Day 1): 4.91 ng/mL/mg
- AUC12/dose ([8]; 6 mg BID, Day 14): 23.1 ng·h/mL/mg
- Cmax/dose ([8]; 6 mg BID, Day 14): 4.80 ng/mL/mg
- Fe %, unchanged drug recovered in urine ([8]; 6 mg BID, Day 14): 18.7%
- AUC12/dose ([8]; 12 mg BID, Day 1): 22.5 ng·h/mL/mg
- C12/dose ([8]; 12 mg BID, Day 1): 0.33 ng/mL/mg
- Cmax/dose ([8]; 12 mg BID, Day 1): 4.84 ng/mL/mg
- Fe %, unchanged drug recovered in urine ([8]; 12 mg BID, Day 14): 21.4%
- AUC12/dose [8, 12]: 22.6 ng·h/mL/mg
- Cmax/dose [8, 12]: 4.80 ng/mL/mg
- AUC12/dose ([8]; 24 mg BID, Day 1): 22.5 ng·h/mL/mg
- C12/dose ([8]; 24 mg BID, Day 1): 0.32 ng/mL/mg
- Cmax/dose ([8]; 24 mg BID, Day 1): 5.25 ng/mL/mg
